Literature values, collected in publication PMC12333940, “A prometabolite strategy inhibits cardiometabolic disease in an ApoE^–/– murine model of atherosclerosis” (JCI Insight, 2025).

Parameters: method as in printed
Details: oral administration of exogenous butyrate; background statement, ref not given; cited from earlier work

CCCC(=O)O [butyrate, Butyrate]
absorption into circulation, plasma concentration: 3 to 4 mM
